Experiments:
[1] = target: T1, Muscarinic acetylcholine receptor M1 (Homo sapiens, UniProt P11229); format: functional, cell-based
T1 sequence (P11229 whole entry): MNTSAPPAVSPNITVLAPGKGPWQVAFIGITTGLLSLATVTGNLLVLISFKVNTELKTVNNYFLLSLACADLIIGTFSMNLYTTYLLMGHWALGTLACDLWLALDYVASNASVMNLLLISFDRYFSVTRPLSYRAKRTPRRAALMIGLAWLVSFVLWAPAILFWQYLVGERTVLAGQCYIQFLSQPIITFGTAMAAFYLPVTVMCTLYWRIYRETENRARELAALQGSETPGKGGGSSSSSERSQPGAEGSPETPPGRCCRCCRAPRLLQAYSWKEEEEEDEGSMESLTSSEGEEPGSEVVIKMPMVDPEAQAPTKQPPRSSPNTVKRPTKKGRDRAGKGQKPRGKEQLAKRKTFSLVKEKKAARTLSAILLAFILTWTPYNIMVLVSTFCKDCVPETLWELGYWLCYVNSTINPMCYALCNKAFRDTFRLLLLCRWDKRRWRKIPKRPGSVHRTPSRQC

[2] = target: T2, Type-1 angiotensin II receptor (Homo sapiens, UniProt P30556)
T2 sequence (P30556 whole entry): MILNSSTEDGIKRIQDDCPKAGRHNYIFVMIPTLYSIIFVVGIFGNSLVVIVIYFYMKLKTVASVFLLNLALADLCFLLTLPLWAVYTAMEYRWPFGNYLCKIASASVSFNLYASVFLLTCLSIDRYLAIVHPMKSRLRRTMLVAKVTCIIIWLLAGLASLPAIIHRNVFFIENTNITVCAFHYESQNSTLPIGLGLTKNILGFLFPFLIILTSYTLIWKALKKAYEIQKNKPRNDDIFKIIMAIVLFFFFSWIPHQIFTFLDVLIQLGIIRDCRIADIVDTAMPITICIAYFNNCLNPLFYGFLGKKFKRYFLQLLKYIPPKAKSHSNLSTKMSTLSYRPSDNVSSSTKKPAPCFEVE

Adenosine receptor A1 = target: T3, Adenosine receptor A1 (Homo sapiens, UniProt P30542)
T3 sequence (P30542 whole entry): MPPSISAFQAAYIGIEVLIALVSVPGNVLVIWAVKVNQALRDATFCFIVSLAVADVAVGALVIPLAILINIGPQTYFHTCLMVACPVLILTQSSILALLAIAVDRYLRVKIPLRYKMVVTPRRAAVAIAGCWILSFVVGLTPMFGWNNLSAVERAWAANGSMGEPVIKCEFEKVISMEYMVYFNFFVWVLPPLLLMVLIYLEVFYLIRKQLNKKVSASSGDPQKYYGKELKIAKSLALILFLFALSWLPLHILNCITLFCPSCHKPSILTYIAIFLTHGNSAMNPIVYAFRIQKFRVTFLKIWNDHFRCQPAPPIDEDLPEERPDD

[3] = target: T4, Neuropeptide Y receptor type 1 (Homo sapiens, UniProt P25929)
T4 sequence (P25929 whole entry): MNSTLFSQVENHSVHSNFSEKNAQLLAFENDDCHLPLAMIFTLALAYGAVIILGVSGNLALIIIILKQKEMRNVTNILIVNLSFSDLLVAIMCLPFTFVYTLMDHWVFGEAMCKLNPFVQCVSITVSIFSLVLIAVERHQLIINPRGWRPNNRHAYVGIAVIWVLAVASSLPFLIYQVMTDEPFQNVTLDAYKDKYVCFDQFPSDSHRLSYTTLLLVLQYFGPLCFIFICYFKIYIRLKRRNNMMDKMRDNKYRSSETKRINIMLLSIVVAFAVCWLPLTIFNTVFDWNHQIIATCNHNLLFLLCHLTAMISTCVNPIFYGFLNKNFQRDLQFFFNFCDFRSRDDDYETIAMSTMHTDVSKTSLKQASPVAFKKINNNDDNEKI

[4] = target: Gamma-aminobutyric acid receptor subunit alpha-1 (Rattus norvegicus, UniProt P62813); format: functional
Gamma-aminobutyric acid receptor subunit alpha-1, sequence (P62813 whole entry): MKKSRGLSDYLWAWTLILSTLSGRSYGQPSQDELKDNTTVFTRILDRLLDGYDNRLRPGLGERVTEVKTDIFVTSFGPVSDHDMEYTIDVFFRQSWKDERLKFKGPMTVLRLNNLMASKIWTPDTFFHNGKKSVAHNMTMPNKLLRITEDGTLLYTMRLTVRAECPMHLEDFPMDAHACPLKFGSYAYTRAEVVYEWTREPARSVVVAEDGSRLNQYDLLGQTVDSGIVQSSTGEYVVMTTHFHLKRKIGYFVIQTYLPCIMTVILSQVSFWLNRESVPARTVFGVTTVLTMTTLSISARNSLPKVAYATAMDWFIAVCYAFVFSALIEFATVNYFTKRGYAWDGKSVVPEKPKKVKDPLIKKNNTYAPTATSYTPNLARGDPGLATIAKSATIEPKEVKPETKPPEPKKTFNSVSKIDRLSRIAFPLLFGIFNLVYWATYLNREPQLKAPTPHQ

[5] = target: T5, Muscarinic acetylcholine receptor M2 (Homo sapiens, UniProt P08172); format: functional, cell-based
T5 sequence (P08172 whole entry): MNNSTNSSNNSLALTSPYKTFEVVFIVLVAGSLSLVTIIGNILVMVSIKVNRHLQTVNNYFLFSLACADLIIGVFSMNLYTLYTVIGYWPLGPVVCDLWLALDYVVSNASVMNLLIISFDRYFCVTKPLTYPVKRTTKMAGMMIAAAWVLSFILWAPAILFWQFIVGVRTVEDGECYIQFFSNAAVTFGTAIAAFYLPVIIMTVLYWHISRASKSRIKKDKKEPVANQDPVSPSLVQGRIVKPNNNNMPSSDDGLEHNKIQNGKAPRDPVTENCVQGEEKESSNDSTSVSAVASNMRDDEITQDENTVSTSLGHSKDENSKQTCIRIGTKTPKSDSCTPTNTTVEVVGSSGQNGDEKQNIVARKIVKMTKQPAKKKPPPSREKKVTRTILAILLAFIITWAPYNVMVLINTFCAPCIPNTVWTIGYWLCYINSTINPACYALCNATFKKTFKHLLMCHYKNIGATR

[6] = target: cGMP-inhibited 3',5'-cyclic phosphodiesterase 3A (Homo sapiens, UniProt Q14432); format: functional
cGMP-inhibited 3',5'-cyclic phosphodiesterase 3A, sequence (Q14432 whole entry): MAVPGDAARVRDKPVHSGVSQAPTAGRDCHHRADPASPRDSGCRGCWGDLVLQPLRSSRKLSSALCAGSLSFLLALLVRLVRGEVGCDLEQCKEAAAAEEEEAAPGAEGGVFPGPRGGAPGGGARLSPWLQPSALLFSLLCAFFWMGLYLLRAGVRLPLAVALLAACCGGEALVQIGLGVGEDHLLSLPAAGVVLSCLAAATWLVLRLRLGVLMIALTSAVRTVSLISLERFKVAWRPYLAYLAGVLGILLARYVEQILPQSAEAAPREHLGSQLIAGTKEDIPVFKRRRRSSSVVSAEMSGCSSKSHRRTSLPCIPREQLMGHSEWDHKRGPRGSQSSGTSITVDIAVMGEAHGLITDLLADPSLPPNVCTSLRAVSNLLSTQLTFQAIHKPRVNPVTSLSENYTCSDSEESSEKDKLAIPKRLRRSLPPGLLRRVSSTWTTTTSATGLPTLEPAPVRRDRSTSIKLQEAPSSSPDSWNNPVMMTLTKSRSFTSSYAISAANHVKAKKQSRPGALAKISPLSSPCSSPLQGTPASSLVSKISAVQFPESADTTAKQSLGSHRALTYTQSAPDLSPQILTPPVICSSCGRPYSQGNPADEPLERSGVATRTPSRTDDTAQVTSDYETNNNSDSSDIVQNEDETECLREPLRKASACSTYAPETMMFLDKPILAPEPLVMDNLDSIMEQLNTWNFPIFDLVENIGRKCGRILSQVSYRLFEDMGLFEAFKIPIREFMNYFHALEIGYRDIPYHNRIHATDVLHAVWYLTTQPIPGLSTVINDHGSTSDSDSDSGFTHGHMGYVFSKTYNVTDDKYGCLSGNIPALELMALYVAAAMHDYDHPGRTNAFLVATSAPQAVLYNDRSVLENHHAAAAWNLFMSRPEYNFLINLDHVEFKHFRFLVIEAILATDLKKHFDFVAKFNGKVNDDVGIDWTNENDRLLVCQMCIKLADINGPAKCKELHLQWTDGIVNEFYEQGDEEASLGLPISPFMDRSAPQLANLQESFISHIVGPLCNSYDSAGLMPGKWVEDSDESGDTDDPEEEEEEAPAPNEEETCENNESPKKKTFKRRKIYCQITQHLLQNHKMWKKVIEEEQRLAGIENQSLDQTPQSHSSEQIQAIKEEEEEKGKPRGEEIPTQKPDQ

[7] = target: Neuronal acetylcholine receptor subunit alpha-4 (Homo sapiens, UniProt P43681)
Neuronal acetylcholine receptor subunit alpha-4, sequence (P43681 whole entry): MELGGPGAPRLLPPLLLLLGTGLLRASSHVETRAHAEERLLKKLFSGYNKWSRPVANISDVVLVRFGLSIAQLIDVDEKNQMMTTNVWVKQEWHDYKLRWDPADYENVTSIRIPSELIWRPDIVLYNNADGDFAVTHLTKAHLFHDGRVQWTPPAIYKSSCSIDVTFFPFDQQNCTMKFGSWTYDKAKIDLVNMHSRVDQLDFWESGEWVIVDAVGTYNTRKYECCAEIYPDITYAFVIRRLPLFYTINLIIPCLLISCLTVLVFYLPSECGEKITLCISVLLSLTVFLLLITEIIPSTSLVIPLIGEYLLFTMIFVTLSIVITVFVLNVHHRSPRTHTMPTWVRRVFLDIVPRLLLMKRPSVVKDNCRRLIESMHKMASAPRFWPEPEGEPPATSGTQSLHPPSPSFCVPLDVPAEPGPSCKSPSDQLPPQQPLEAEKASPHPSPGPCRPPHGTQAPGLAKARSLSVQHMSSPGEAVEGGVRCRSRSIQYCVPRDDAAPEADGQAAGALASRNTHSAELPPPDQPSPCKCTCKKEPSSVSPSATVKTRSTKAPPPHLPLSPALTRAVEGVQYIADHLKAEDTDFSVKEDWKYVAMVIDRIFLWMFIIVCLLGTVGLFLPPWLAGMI

D(1A) dopamine receptor = D(1A) dopamine receptor (Homo sapiens, UniProt P21728); format: functional, cell-based
D(1A) dopamine receptor, sequence (P21728 whole entry): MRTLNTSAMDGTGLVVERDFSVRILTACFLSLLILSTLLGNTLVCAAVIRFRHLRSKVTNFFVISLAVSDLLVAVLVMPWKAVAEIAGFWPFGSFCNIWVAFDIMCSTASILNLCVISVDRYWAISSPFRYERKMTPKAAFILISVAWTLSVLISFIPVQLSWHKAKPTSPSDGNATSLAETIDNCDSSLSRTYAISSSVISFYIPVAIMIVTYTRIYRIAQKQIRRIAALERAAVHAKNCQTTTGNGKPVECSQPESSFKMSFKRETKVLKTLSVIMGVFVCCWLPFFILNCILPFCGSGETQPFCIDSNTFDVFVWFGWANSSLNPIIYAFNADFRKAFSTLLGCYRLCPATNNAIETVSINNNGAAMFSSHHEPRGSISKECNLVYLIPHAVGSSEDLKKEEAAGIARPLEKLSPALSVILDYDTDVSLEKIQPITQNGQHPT

Adenosine receptor A3 = target: T6, Adenosine receptor A3 (Homo sapiens, UniProt P0DMS8)
T6 sequence (P0DMS8 whole entry): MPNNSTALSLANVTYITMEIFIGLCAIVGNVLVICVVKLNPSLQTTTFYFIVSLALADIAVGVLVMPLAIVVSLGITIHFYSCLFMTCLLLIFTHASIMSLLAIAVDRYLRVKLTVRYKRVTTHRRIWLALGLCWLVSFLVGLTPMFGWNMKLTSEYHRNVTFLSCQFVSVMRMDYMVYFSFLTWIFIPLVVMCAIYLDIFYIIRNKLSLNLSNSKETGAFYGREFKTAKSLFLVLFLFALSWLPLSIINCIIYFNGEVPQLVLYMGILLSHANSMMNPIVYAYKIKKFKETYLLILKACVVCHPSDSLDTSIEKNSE
Note: assay procedure not described here.

| Compound | AC50 [1] | AC50 [2] | AC50 (Adenosine receptor A1) | AC50 [3] | AC50 [4] | AC50 [5] | AC50 [6] | AC50 [7] | AC50 (D(1A) dopamine receptor) | AC50 (Adenosine receptor A3) |
| --- | --- | --- | --- | --- | --- | --- | --- | --- | --- | --- |
| CC(C)(C)C(=O)NCCCC(=O)O [PIVAGABINE] | > 30 µM | – | – | – | – | – | – | – | – | – |
| CC(=O)S[C@@H]1CC2=CC(=O)CC[C@]2(C)[C@H]2CC[C@@]3(C)[C@@H](CC[C@@]34CCC(=O)O4)[C@H]12 [SPIRONOLACTONE] | – | > 30 µM | > 30 µM | > 30 µM | > 10 µM | 26 µM | > 30 µM | > 30 µM | > 30 µM | > 30 µM |
| COC(=O)[C@H](c1ccccc1Cl)N1CCc2sccc2C1 [CLOPIDOGREL] | – | > 30 µM | > 30 µM | > 30 µM | > 30 µM | 27 µM | > 30 µM | > 30 µM | 19 µM | > 30 µM |
| Nc1nc(O)c2ncn(COC(CO)CO)c2n1 [GANCICLOVIR] | – | > 30 µM | > 30 µM | > 30 µM | > 30 µM | > 30 µM | > 30 µM | > 30 µM | > 30 µM | > 30 µM |
| Cc1cc(CC(=O)O)n(C)c1C(=O)c1ccc(Cl)cc1 [ZOMEPIRAC] | – | > 30 µM | > 30 µM | > 30 µM | > 30 µM | > 30 µM | > 30 µM | > 30 µM | > 30 µM | > 30 µM |
| CNCC[C@H](Oc1cccc2ccccc12)c1cccs1 [DULOXETINE] | – | > 30 µM | > 30 µM | > 30 µM | > 10 µM | > 10 µM | > 30 µM | > 10 µM | > 10 µM | > 30 µM |
| CCCN(CCC)CCc1cccc2c1CC(=O)N2 [ROPINIROLE] | – | > 30 µM | > 30 µM | > 30 µM | > 30 µM | 23 µM | > 30 µM | > 30 µM | > 30 µM | > 30 µM |
| O=C1NC(=O)C(c2ccccc2)(c2ccccc2)N1 [PHENYTOIN] | – | > 30 µM | > 30 µM | > 30 µM | > 30 µM | > 30 µM | > 30 µM | > 30 µM | > 30 µM | > 30 µM |
| CC(/C=C1\SC(=S)N(CC(=O)O)C1=O)=C\c1ccccc1 | – | 1.5 µM | 15 µM | > 30 µM | > 30 µM | > 30 µM | > 30 µM | 28 µM | > 30 µM | 20 µM |
| CC1(C)S[C@@H]2[C@H](NC(=O)[C@H](N)c3ccc(O)cc3)C(=O)N2[C@H]1C(=O)O [AMOXICILLIN] | – | > 30 µM | > 30 µM | > 30 µM | > 30 µM | > 30 µM | > 30 µM | > 30 µM | > 30 µM | > 30 µM |
| CO/N=C(\C(=O)N[C@@H]1C(=O)N2C(C(=O)O)=C(COC(N)=O)CS[C@H]12)c1ccco1 [CEFUROXIME] | – | > 30 µM | > 30 µM | > 30 µM | > 30 µM | > 30 µM | > 30 µM | > 30 µM | > 30 µM | > 30 µM |
| O=C(Nc1c(Cl)cncc1Cl)c1ccc(OC(F)F)c(OCC2CC2)c1 [ROFLUMILAST] | – | > 30 µM | > 30 µM | > 30 µM | > 30 µM | > 30 µM | > 30 µM | > 30 µM | > 30 µM | > 30 µM |
| CCCCNc1ccc(C(=O)OCCN(C)C)cc1 [TETRACAINE] | – | > 30 µM | > 30 µM | > 30 µM | > 10 µM | > 10 µM | > 30 µM | > 10 µM | > 10 µM | > 30 µM |
